Assay type in all cases: cell-based, human
The test system of data set [1] is NK cells. The data set is described as follows: NK cell expansion from CD34+ cells in three-stage NK culture, compound present for the first 14 days. The note with it: for level of expansion compared to SR1 at Day 35 / expansion, differentiation and cytotoxicity profiles compared to SR1: compound at 10 μM; for level of expansion compared to SR1 at Day 35: SR1 at 10 μM as positive control; for expansion, differentiation and cytotoxicity profiles compared to SR1: PNK-007 culture; for support of NK cell expansion (and differentiation), in words: compound at 10 μM during first 14 days of culture; for level of expansion compared to SR1 at Day 35 / support of NK cell expansion (and differentiation), in words: Day 35. The method, then: (§1) CD34^+ cells are cultured in the following medium formulations for the indicated number of days, and aliquots of cells are taken for assessment of cell count, cell viability, characterization of natural killer cell differentiation and functional evaluation.
(§2) Stage 1 medium: 90% Stem Cell Growth Medium (SCGM) (CellGro®), 10% Human Serum-AB, supplemented with 25 ng/mL or 250 ng/mL recombinant human thrombopoietin (TPO), 25 ng/mL recombinant human Flt3L, 27 ng/mL recombinant human stem cell factor (SCF), 25 ng/mL recombinant human IL-7, 0.05 ng/mL or 0.025 ng/mL recombinant human IL-6, 0.25 ng/mL or 0.125 ng/mL recombinant human granulocyte colony-stimulating factor (G-CSF), 0.01 ng/mL or 0.025 ng/mL recombinant human granulocyte-macrophage colony-stimulating factor (GM-CSF), 0.10% gentamicin, and 1 to 10 μm StemRegenin-1 (SR-1) or other stem cell mobilizing agent.
(§3) Stage 2 medium: 90% SCGM, 10% Human Serum-AB, supplemented with 25 ng/mL recombinant human Flt3L, 27 ng/mL recombinant human SCF, 25 ng/mL recombinant human IL-7, 20 ng/mL recombinant human IL-15, 0.05 ng/mL or 0.025 ng/mL recombinant human IL-6, 0.25 ng/mL or 0.125 ng/mL recombinant human granulocyte colony-stimulating factor (G-CSF), 0.01 ng/mL or 0.025 ng/mL recombinant human granulocyte-macrophage colony-stimulating factor (GM-CSF), 0.10% gentamicin, and 1 to […] SR1 or other stem cell mobilizing agent.
Stage 3 medium: 90% STEMMACS′, 10% Human Serum-AB, 0.025 mM 2-mercaptoethanol (55 mM), supplemented with 22 ng/mL recombinant human SCF, 1000 U/mL recombinant human IL-2, 20 ng/mL recombinant human IL-7, 20 ng/mL recombinant human IL-15, 0.05 ng/mL or 0.025 ng/mL recombinant human IL-6, 0.25 ng/mL or 0.125 ng/mL recombinant human granulocyte colony-stimulating factor (G-CSF), 0.01 ng/mL or 0.025 ng/mL recombinant human granulocyte-macrophage colony-stimulating factor (GM-CSF), and 0.10% gentamicin.
(§4) Cells are seeded at Day 0 at 3×10^4 cells/mL in Stage 1 media, and cells are tested for purity by a CD34+ and CD45+ count and viability by 7AAD staining. At Day 5 cells are counted and seeded to a concentration of 1×10^5 cells/mL with Stage 1 medium. At Day 7 cells are counted and seeded to a concentration of 1×10^5 cells/mL with Stage 1 medium.
At Day 10, cells are counted and seeded to a concentration of 1×10^5 cells/mL in Stage 2 medium. At Day 12, cells are counted and seeded to a concentration of 3×10^5 cells/mL in Stage 2 medium. At Day 14, cells are counted and seeded in Stage 3 medium. Cells are maintained in Stage 3 media until day 35.
(§5) UCB CD34+ cells were cultivated in presence of cytokines including thrombopoietin, SCF, Flt3 ligand, IL-7, IL-15 and IL-2 for 35 days to produce three-stage NK cells, as described in Example 1. Multi-color flow cytometry was used to determine the phenotypic characteristics of three-stage NK cells.
(§6) For biological testing, the compounds were provided to culture to evaluate their effects on NK cell expansion and differentiation. Specifically, donors of CD34+ cells (StemCell Technology) were thawed and expanded in vitro following NK culture protocol. During the first 14 days of the culture, each CRL compounds was dissolved in DMSO and added to the culture at 10 μM concentration. SR1 (at 10 μM) served as a positive control compound, while DMSO alone without any compound served as a negative control. At the end of the culture on Day 35, cell expansion, natural killer (NK) cell differentiation and cytotoxicity of the cells against K562 tumor cell line were characterized. Due to the large number of the compounds, the testing was performed in two experiments, CRL1-11 and CRL 12-22. The same donors were used for each experiment. Positive and negative controls were also included in both experiments.

For data set [2], the system named is NK cells. The data set is described as follows: NK cell differentiation at Day 35 by multi-color flow cytometry. The note with it: PNK-007 culture, compound at 10 μM.
Text: as §5, §6
On the technique in general: A flow cytometer gives signals particle by particle.

The subject of the next data set is K562 tumor cells. The data set is described as follows: Cytotoxicity assay of compound cultured cells against K562 tumor cells. The note with it: 10:1 E:T ratio, both donors. The method, then: as §6
Cytotoxicity assay was run using compound cultured cells against K562 tumor cells at 10:1 effector to target ratio (FIG. 5) to evaluate cell functions.

The test system of the next data set is CD34 cells. Nature of the data set: CD34 cell expansion at Day 14 of the NK culture. The settings on record: compound at 10 μM; Day 14 of the culture. The method, then: as §1, §2, §3, §4
At Day 10, cells are counted and seeded to a concentration of 1×10^5 cells/mL in Stage 2 medium. At Day 12, cells are counted and seeded to a concentration of 3×10^5 cells/mL in Stage 2 medium. At Day 14, cells are counted and seeded in Stage 3 medium. Cells are maintained in Stage 3 media until day 35. […]

“Also recorded” adds a separate entry of the source.

For the molecule `CC(C)c1csc2c(NCCc3c[nH]c4ccccc34)nc(-c3cncc(F)c3)nc12` [CRL18, N-(2-(1H-indol-3-yl)ethyl)-2-(5-fluoropyridin-3-yl)-7-isopropylthieno[3,2-d]pyrimidin-4-amine], in the data set with NK cells [1], the “level of expansion compared to SR1 at Day 35” value was “slightly less expansion compared to SR1”. Further, the “CD56+/CD11a+ subpopulation compared to SR1” value in the data set on NK cells [2] is “increased CD56+/CD11a+ subpopulation”. In the data set on K562 tumor cells, the “killing activities of cultured cells compared to those cultured with SR1” value is recorded as “increased killing activities of the cells”.
Take `Fc1cncc(-c2nc(NCCc3c[nH]c4ccccc34)c3occc3n2)c1` [CRL19, N-(2-(1H-indol-3-yl)ethyl)-2-(5-fluoropyridin-3-yl)furo[3,2-d]pyrimidin-4-amine]: in the data set with NK cells [1], the “expansion, differentiation and cytotoxicity profiles compared to SR1” value was “very similar expansion, differentiation and cytotoxicity profiles as SR1”; the “support of NK cell expansion (and differentiation), in words” value (“support … (and differentiation), in words” for short) is “supported cell expansion the best”. In addition, the “CD34 cell expansion at Day 14” value with CD34 cells is recorded as “achieved the highest CD34 cell expansion”.
As for `Cc1cncc(-c2nc(NCCc3c[nH]c4ccccc34)c3occc3n2)c1` [CRL20, N-(2-(1H-indol-3-yl)ethyl)-2-(5-methylpyridin-3-yl)furo[3,2-d]pyrimidin-4-amine], in the data set with NK cells [1], the “expansion, differentiation and cytotoxicity profiles compared to SR1” value is “very similar expansion, differentiation and cytotoxicity profiles as SR1”; the “support … (and differentiation), in words” value was “supported cell expansion the best”. For the same molecule, the “CD34 cell expansion at Day 14” value in the data set with CD34 cells is on record as “achieved the highest CD34 cell expansion”.
As to `N#Cc1cncc(-c2nc(NCCc3c[nH]c4ccccc34)c3occc3n2)c1` [CRL22, 5-(4-((2-(1H-indol-3-yl)ethyl)amino)furo[3,2-d]pyrimidin-2-yl)nicotinonitrile], in the data set on NK cells [1], the “expansion, differentiation and cytotoxicity profiles compared to SR1” value was “very similar expansion, differentiation and cytotoxicity profiles as SR1”; the “support … (and differentiation), in words” value is recorded as “supported cell expansion the best”. In addition, the “CD34 cell expansion at Day 14” value in the data set on CD34 cells is listed as “achieved the highest CD34 cell expansion”.
For `CCC(C)Nc1cc(-c2cncc(C#N)c2)nc(NCCc2c[nH]c3ccccc23)n1` (centres unmarked) [CRL7, 5-(2-((2-(1H-indol-3-yl)ethyl)amino)-6-(sec-butylamino)pyrimidin-4-yl)nicotinonitrile], the “support … (and differentiation), in words” value in the data set on NK cells [1] was “Except for CRL7 and CRL13, the rest of the compounds all resulted in a NK expansion; also recorded: all the compounds except CRL7 and CRL13 supported PNK-007 expansion and differentiation”.
For `Cc1cncc(-c2nc(NCCc3c[nH]c4ccccc34)c3scc(C(C)C)c3n2)c1` [CRL21, N-(2-(1H-indol-3-yl)ethyl)-7-isopropyl-2-(5-methylpyridin-3-yl)thieno[3,2-d]pyrimidin-4-amine], the “level of expansion compared to SR1 at Day 35” value in the data set on NK cells [1] is “slightly less expansion compared to SR1”. Besides, in the data set on NK cells [2], the “CD56+/CD11a+ subpopulation compared to SR1” value is reported as “increased CD56+/CD11a+ subpopulation”. The “killing activities of cultured cells compared to those cultured with SR1” value with K562 tumor cells is “increased killing activities of the cells”.
Regarding `CCC(C)Nc1nc(NCCc2c[nH]c3ccccc23)c2ccccc2n1` (centres unmarked) [CRL13, N^4-(2-(1H-indol-3-yl)ethyl)-N^2-(sec-butyl)quinazoline-2,4-diamine], in the data set on NK cells [1], the “support … (and differentiation), in words” value was “Except for CRL7 and CRL13, the rest of the compounds all resulted in a NK expansion; also recorded: all the compounds except CRL7 and CRL13 supported PNK-007 expansion and differentiation”.
For `CC(C)c1csc2c(NCCc3c[nH]c4ccccc34)nc(-c3cncc(C#N)c3)nc12` [CRL17, 5-(4-((2-(1H-indol-3-yl)ethyl)amino)-7-isopropylthieno[3,2-d]pyrimidin-2-yl)nicotinonitrile], in the data set with NK cells [1], the “level of expansion compared to SR1 at Day 35” value is “slightly less expansion compared to SR1”. The “CD56+/CD11a+ subpopulation compared to SR1” value with NK cells [2] is “increased CD56+/CD11a+ subpopulation”. In the data set on K562 tumor cells, the “killing activities of cultured cells compared to those cultured with SR1” value is given as “increased killing activities of the cells”.

These data come from patent US20230028680A1, “EXPANSION OF NATURAL KILLER CELLS AND ILC3 CELLS WITH NOVEL AROMATIC COMPOUNDS” (Celularity Inc., priority 2018, published 2023).
